18 compounds from patent US20090326003A1, “PYRAZOLO (3, 4-B) PYRIDINE DERIVATIVES AS PDE4 INHIBITORS” (priority 2006, published 2009) can be followed below.

Where a name gives a salt, the structure may show the parent alone.

T1 sequence (Q07343 1-564 isoform Q07343-2): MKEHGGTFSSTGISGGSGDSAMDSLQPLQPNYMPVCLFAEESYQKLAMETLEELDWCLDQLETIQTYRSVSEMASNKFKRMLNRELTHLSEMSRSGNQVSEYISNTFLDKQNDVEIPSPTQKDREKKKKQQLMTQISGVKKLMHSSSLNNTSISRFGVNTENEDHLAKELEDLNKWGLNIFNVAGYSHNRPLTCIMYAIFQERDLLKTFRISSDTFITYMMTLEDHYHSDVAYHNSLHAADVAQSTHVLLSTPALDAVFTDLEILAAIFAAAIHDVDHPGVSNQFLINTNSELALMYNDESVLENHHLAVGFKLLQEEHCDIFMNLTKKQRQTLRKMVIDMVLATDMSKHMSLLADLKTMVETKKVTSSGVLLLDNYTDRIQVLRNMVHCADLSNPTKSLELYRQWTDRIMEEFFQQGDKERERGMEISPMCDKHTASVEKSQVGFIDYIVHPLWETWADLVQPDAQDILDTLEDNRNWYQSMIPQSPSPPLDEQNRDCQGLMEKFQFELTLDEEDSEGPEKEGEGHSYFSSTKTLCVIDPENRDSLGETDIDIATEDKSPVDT

The assay concerns the target T1, PDE4B (human recombinant) (Homo sapiens, UniProt Q07343).
T1 construct: made in house
The assay is described as follows: PDE4B inhibition, fluorescence polarisation (FP) and/or SPA assay. It counts as biochemical. The following applies: n=1 or average of 2 or more readings, accuracy ±about 0.5 log unit, read-out: PDE4B pIC50 (generally in FP assay) (±about 0.5) (converted). An excerpt:
Human recombinant PDE4B, in particular the 2B splice variant thereof (HSPDE4B2B), is disclosed in WO 94/20079 and also M. M. McLaughlin et al., “A low Km, rolipram-sensitive, cAMP-specific phosphodiesterase from human brain: cloning and expression of cDNA, biochemical characterisation of recombinant protein, and tissue distribution of mRNA”, J. Biol. Chem., 1993, 268, 6470-6476. For example, in Example 1 of WO 94/20079, human recombinant PDE4B is described as being expressed in the PDE-deficient yeast Saccharomyces cerevisiae strain GL62, e.g. after induction by addition of 150 uM CuSO4, and 100,000×g supernatant fractions of yeast cell lysates are described for use in the harvesting of PDE4B enzyme.
The ability of compounds to inhibit catalytic activity at PDE4B or 4D (human recombinant), PDE3 (from bovine aorta), PDE5 (human recombinant) or PDE6 (from bovine retina) can optionally be determined by Scintillation Proximity Assay (SPA) in a 96-well format.
Test compounds (as a solution in DMSO, preferably about 2 microliter (ul) volume of DMSO solution) are preincubated at ambient temperature (room temperature, e.g. 19-23° C.) in Wallac Isoplates (code 1450-514) with PDE enzyme in 50 mM Tris-HCl buffer pH 7.5, 8.3 mM MgCl2, 1.7 mM EGTA, 0.05% (w/v) bovine serum albumin for 10-30 minutes (usually 30 minutes). The enzyme concentration is adjusted so that no more than 20% hydrolysis of the substrate defined below occurs in control wells without compound, during the incubation. For the PDE3, PDE4B and PDE4D assays, [5′,8-3H]Adenosine 3′,5′-cyclic phosphate (Amersham Pharmacia Biotech, code TRK.559; or Amersham Biosciences UK Ltd, Pollards Wood, Chalfont St Giles, Buckinghamshire HP8 4SP, UK) is added to give 0.05 uCi per well and about 10 nM final concentration. For the PDE5 and PDE6 assays, [8-^3H]Guanosine 3′,5′-cyclic phosphate (Amersham Pharmacia Biotech, code TRK.392) is added to give 0.05 uCi per well and about 36 nM final concentration. Plates containing assay mixture, preferably approx. 100 ul volume of assay mixture, are mixed on an orbital shaker for 5 minutes and incubated at ambient temperature for 1 hour. Phosphodiesterase SPA beads (Amersham Pharmacia Biotech, code RPNQ 0150) are added (about 1 mg per well) to terminate the assay. Plates are sealed and shaken and allowed to stand at ambient temperature for 35 minutes to 1 hour (preferably 35 minutes) to allow the beads to settle. Bound radioactive product is measured using a WALLAC TRILUX 1450 Microbeta scintillation counter. For inhibition curves, 10 concentrations (e.g. 1.5 nM-30 uM) of each compound are assayed. Curves are analysed using ActivityBase and XLfit (ID Business Solutions Limited, 2 Ocean Court, Surrey Research Park, Guildford, Surrey GU2 7QB, United Kingdom) Results are expressed as pIC50 values.
The ability of compounds to inhibit catalytic activity at PDE4B (human recombinant) or PDE4D (human recombinant) can optionally be determined by IMAP Fluorescence Polarisation (FP) assay (IMAP Explorer kit, available from Molecular Devices Corporation, Sunnydale, Calif., USA; Molecular Devices code: R8062) in 384-well format.
The IMAP FP assay is able to measure PDE activity in an homogenous, non-radioactive assay format. The FP assay uses the ability of immobilised trivalent metal cations, coated onto nanoparticles (tiny beads), to bind the phosphate group of FI-AMP that is produced on the hydrolysis of fluorescein-labelled (FI) cyclic adenosine mono-phosphate (FI-cAMP) to the non-cyclic FI-AMP form. […] Binding of FI-AMP product to the beads (coated with the immobilised trivalent cations) slows the rotation of the bound FI-AMP and leads to an increase in the fluorescence polarisation ratio of parallel to perpendicular light. Inhibition of the PDE reduces/inhibits this signal increase. […]
(Fluorescence polarisation rises when a labelled molecule tumbles more slowly, as on binding a larger partner.)
Turning to `CCc1nc2c(cnn2CC)c(NC2CCN(C(N)=O)CC2)c1CNC(=O)C1CCC(C(=O)NCc2c(CC)nc3c(cnn3CC)c2NC2CCN(C(N)=O)CC2)C1` (stereo not drawn) [Example 20, N,N′-bis[(4-{[1-(aminocarbonyl)-4-piperidinyl]amino}-1,6-diethyl-1H-pyrazolo[3,4-b]pyridin-5-yl)methyl]-1,3-cyclopentanedicarboxamide trifluoroacetate], the IC50 is 0.0158 to 0.1 nM.

For `CCc1nc2c(cnn2CC)c(NC2CCN(C(N)=O)CC2)c1CNC(=O)c1ccc(Oc2ccc(C(=O)NCc3c(CC)nc4c(cnn4CC)c3NC3CCN(C(N)=O)CC3)cc2)cc1` [Example 27, 4,4′-{oxybis[benzene-4,1-diyl(oxomethanediyl)iminomethanediyl(1,6-diethyl-1H-pyrazolo[3,4-b]pyridine-5,4-diyl)imino]}di(1-piperidinecarboxamide)], the IC50 is 0.0158 to 0.1 nM.

In the case of `CCc1nc2c(cnn2CC)c(NC2CCN(C(N)=O)CC2)c1CNC(=O)c1ccc(C(=O)NCc2c(CC)nc3c(cnn3CC)c2NC2CCN(C(N)=O)CC2)cc1` [Example 25, N,N′-bis[(4-{[1-(aminocarbonyl)-4-piperidinyl]amino}-1,6-diethyl-1H-pyrazolo[3,4-b]pyridin-5-yl)methyl]-1,4-benzenedicarboxamide], the IC50 was 0.0158 to 0.1 nM.

With `CCc1nc2c(cnn2CC)c(NC2CCOCC2)c1CNC(=O)CCCC(=O)NCc1c(CC)nc2c(cnn2CC)c1NC1CCOCC1` [Example 2, N,N′-bis{[1,6-diethyl-4-(tetrahydro-2H-pyran-4-ylamino)-1H-pyrazolo[3,4-b]pyridin-5-yl]methyl}pentanediamide], the IC50 is 0.126 to 1 nM.

For the compound `CCc1nc2c(cnn2CC)c(NC2CCOCC2)c1CNC(=O)c1ccc(-c2ccc(C(=O)NCc3c(CC)nc4c(cnn4CC)c3NC3CCOCC3)cn2)nc1` [Example 34, N,N′-bis{[1,6-diethyl-4-(tetrahydro-2H-pyran-4-ylamino)-1H-pyrazolo[3,4-b]pyridin-5-yl]methyl}-2,2′-bipyridine-5,5′-dicarboxamide], the IC50 was 0.126 to 1 nM.

Consider `CCc1nc2c(cnn2CC)c(NC2CCN(C(N)=O)CC2)c1CNC(=O)CCC(=O)NCc1c(CC)nc2c(cnn2CC)c1NC1CCN(C(N)=O)CC1` [Example 17, N,N′-bis[(4-{[1-(aminocarbonyl)-4-piperidinyl]amino}-1,6-diethyl-1H-pyrazolo[3,4-b]pyridin-5-yl)methyl]butanediamide trifluoroacetate], for which the IC50 was 0.126 to 1 nM.

For the compound `CCc1nc2c(cnn2CC)c(NC2CCOCC2)c1CNC(=O)CC(C)(C)CC(=O)NCc1c(CC)nc2c(cnn2CC)c1NC1CCOCC1` [Example 3, N,N′-bis{[1,6-diethyl-4-(tetrahydro-2H-pyran-4-ylamino)-1H-pyrazolo[3,4-b]pyridin-5-yl]methyl}-3,3-dimethylpentanediamide], the IC50 was 0.0158 to 0.1 nM.

Consider `CCc1nc2c(cnn2CC)c(NC2CCOCC2)c1CNC(=O)c1ccc(Oc2ccc(C(=O)NCc3c(CC)nc4c(cnn4CC)c3NC3CCOCC3)cc2)cc1` [Example 24, 4,4′-oxybis(N-{[1,6-diethyl-4-(tetrahydro-2H-pyran-4-ylamino)-1H-pyrazolo[3,4-b]pyridin-5-yl]methyl}benzamide)], for which the IC50 was 0.126 to 1 nM.

Turning to `CCc1nc2c(cnn2CC)c(NC2CCN(C(N)=O)CC2)c1CNC(=O)c1ccc(-c2ccc(C(=O)NCc3c(CC)nc4c(cnn4CC)c3NC3CCN(C(N)=O)CC3)cc2)cc1` [Example 26, N,N′-bis[(4-{[1-(aminocarbonyl)-4-piperidinyl]amino}-1,6-diethyl-1H-pyrazolo[3,4-b]pyridin-5-yl)methyl]-4,4′-biphenyldicarboxamide], the IC50 was 0.0158 to 0.1 nM.

As for `CCc1nc2c(cnn2CC)c(NC2CCOCC2)c1CNC(=O)c1cnc(C(=O)NCc2c(CC)nc3c(cnn3CC)c2NC2CCOCC2)cn1` [Example 32, N,N′-bis{[1,6-diethyl-4-(tetrahydro-2H-pyran-4-ylamino)-1H-pyrazolo[3,4-b]pyridin-5-yl]methyl}-2,5-pyrazinedicarboxamide], the IC50 was 0.126 to 1 nM.

For the compound `CCc1nc2c(cnn2CC)c(NC2CCN(C(N)=O)CC2)c1CNC(=O)C1CCC(C(=O)NCc2c(CC)nc3c(cnn3CC)c2NC2CCN(C(N)=O)CC2)CC1` (stereo not drawn) [Example 11, N,N′-bis[(4-{[1-(aminocarbonyl)-4-piperidinyl]amino}-1,6-diethyl-1H-pyrazolo[3,4-b]pyridin-5-yl)methyl]-1,4-cyclohexanedicarboxamide trifluoroacetate], the IC50 was 0.0158 to 0.1 nM.

Turning to `CCc1nc2c(cnn2CC)c(NC2CCOCC2)c1CNC(=O)c1ccc(Cc2ccc(C(=O)NCc3c(CC)nc4c(cnn4CC)c3NC3CCOCC3)cc2)cc1` [Example 5, 4,4′-methanediylbis(N-{[1,6-diethyl-4-(tetrahydro-2H-pyran-4-ylamino)-1H-pyrazolo[3,4-b]pyridin-5-yl]methyl}benzamide)], the IC50 is 0.0158 to 0.1 nM.

Consider `CCc1nc2c(cnn2CC)c(NC2CCN(C(N)=O)CC2)c1CNC(=O)CCc1ccc(C(=O)NCc2c(CC)nc3c(cnn3CC)c2NC2CCN(C(N)=O)CC2)cc1` [Example 14, 4-({5-[({3-[4-({[(4-{[1-(aminocarbonyl)-4-piperidinyl]amino}-1,6-diethyl-1H-pyrazolo[3,4-b]pyridin-5-yl)methyl]amino}carbonyl)phenyl]propanoyl}amino)methyl]-1,6-diethyl-1H-pyrazolo[3,4-b]pyridin-4-yl}amino)-1-piperidinecarboxamide trifluoroacetate], for which the IC50 was 0.0158 to 0.1 nM.

Turning to `CCc1nc2c(cnn2CC)c(NC2CCOCC2)c1CNC(=O)COCC(=O)NCc1c(CC)nc2c(cnn2CC)c1NC1CCOCC1` [Example 9, 2,2′-oxybis(N-{[1,6-diethyl-4-(tetrahydro-2H-pyran-4-ylamino)-1H-pyrazolo[3,4-b]pyridin-5-yl]methyl}acetamide)], the IC50 is 0.126 to 1 nM.

As to `CCc1nc2c(cnn2CC)c(NC2CCOCC2)c1CNC(=O)Cc1ccc(CC(=O)NCc2c(CC)nc3c(cnn3CC)c2NC2CCOCC2)cc1` [Example 6, 2,2′-benzene-1,4-diylbis(N-{[1,6-diethyl-4-(tetrahydro-2H-pyran-4-ylamino)-1H-pyrazolo[3,4-b]pyridin-5-yl]methyl}acetamide)], the IC50 was 0.126 to 1 nM.

In the case of `CCc1nc2c(cnn2CC)c(NC2CCOCC2)c1CNC(=O)c1ccc(C(=O)NCc2c(CC)nc3c(cnn3CC)c2NC2CCOCC2)cc1` [Example 22, N,N′-bis{[1,6-diethyl-4-(tetrahydro-2H-pyran-4-ylamino)-1H-pyrazolo[3,4-b]pyridin-5-yl]methyl}-1,4-benzenedicarboxamide], the IC50 is 0.126 to 1 nM.

Consider `CCc1nc2c(cnn2CC)c(NC2CCOCC2)c1CNC(=O)CCc1ccccc1C(=O)NCc1c(CC)nc2c(cnn2CC)c1NC1CCOCC1` [Example 7, N-{[1,6-diethyl-4-(tetrahydro-2H-pyran-4-ylamino)-1H-pyrazolo[3,4-b]pyridin-5-yl]methyl}-2-[3-({[1,6-diethyl-4-(tetrahydro-2H-pyran-4-ylamino)-1H-pyrazolo[3,4-b]pyridin-5-yl]methyl}amino)-3-oxopropyl]benzamide], for which the IC50 is 0.0158 to 0.1 nM.

For the compound `CCc1nc2c(cnn2CC)c(NC2CCN(C(N)=O)CC2)c1CNC(=O)Cc1cccc(C(=O)NCc2c(CC)nc3c(cnn3CC)c2NC2CCN(C(N)=O)CC2)c1` [Example 13, 4-({5-[({[3-({[(4-{[1-(aminocarbonyl)-4-piperidinyl]amino}-1,6-diethyl-1H-pyrazolo[3,4-b]pyridin-5-yl)methyl]amino}carbonyl)phenyl]acetyl}amino)methyl]-1,6-diethyl-1H-pyrazolo[3,4-b]pyridin-4-yl}amino)-1-piperidinecarboxamide trifluoroacetate], the IC50 was 0.126 to 1 nM.
